The assay deals with T1, HIV integrase (Human immunodeficiency virus type 1 group M subtype B, UniProt P12497, F1332H).
T1 construct: HIV integrase full length gene; made in house; host or cells: Escherichia coli BL21(DE3), plasmid pET21a-INH
The assay is described as follows: Determination of enzyme (HIV integrase) inhibitory activity. It counts as biochemical. The following applies: recombinant HIV integrase (F185H), strand transfer ELISA, absorbance at 450 nm. Summed up: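 Full-length integrase with F185H, expressed in E. coli and purified, was reacted for 60 min at 37 °C with compound and biotinylated donor DNA bound to streptavidin plates. Target DNA was added for 10 min, then anti-digoxigenin-peroxidase detection at A450; IC50 from % inhibition versus enzyme-free blank.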
Background: ELISA stands for enzyme-linked immunosorbent assay.

Experimental findings from patent publication US7211572B2 (Japan Tobacco Inc., priority 2003, dated 2007) are described below.

pIC50: −log10 of the molar value. Counter-ions that a name gives are not always drawn.

Regarding `CC(=O)Nc1cn2c(c(O)c1=O)C(=O)N(Cc1cccc(Cl)c1F)CC2` [Example 332, N-[2-(3-chloro-2-fluorobenzyl)-9-hydroxy-1,8-dioxo-1,3,4,8-tetrahydro-2H-pyrido[1,2-a]pyrazin-7-yl]acetamide], the negative logarithm of the IC50 (pIC50) – broadly, the negative decadic logarithm of the IC50, by convention in mol/L – is 7.00 to 8.00.

Take `O=c1c(Sc2ccccc2)cn2ccn(Cc3cccc(Cl)c3)c(=O)c2c1O` [Example 235, 2-(3-chlorobenzyl)-9-hydroxy-7-phenylsulfanyl-2H-pyrido [1,2-a]pyrazine-1,8-dione]: the negative logarithm of the IC50 (pIC50) was 7.00 to 8.00.

Turning to `CC(=O)c1cn2ccn(Cc3cccc(Cl)c3)c(=O)c2c(O)c1=O` [Example 204, 7-acetyl-2-(3-chlorobenzyl)-9-hydroxy-2H-pyrido[1,2-a]pyrazine-1,8-dione hydrochloride], the pIC50 is > 8.00.

For the molecule `O=c1ccn2ccn(CCCc3c(Cl)cccc3Cl)c(=O)c2c1O` [Example 11, 2-[3-(2,6-dichlorophenyl)propyl]-9-hydroxy-2H-pyrido[1,2-a]pyrazine-1,8-dione], the pIC50 was > 8.00.

Consider `O=c1c(-c2ccncc2)cn2ccn(Cc3ccc(F)cc3)c(=O)c2c1O` [Example 341, 2-(4-fluorobenzyl)-9-hydroxy-7-(pyridin-4-yl)-2H-pyrido[1,2-a]pyrazine-1,8-dione hydrochloride], for which the pIC50 is > 8.00.

For the molecule `O=C1c2c(O)c(=O)c(Br)cn2CC(O)N1Cc1cccc(Cl)c1` (centres unmarked) [Example 110, 7-bromo-2-(3-chlorobenzyl)-3,9-dihydroxy-3,4-dihydro-2H-pyrido[1,2-a]pyrazine-1,8-dione hydrochloride], the pIC50 was 6.00 to 7.00.

With `CNC(=O)c1cc(F)ccc1CN1CCn2cc(-c3nccs3)c(=O)c(O)c2C1=O` [Example 301, 5-fluoro-2-[9-hydroxy-1,8-dioxo-7-(thiazol-2-yl)-1,3,4,8-tetrahydro-pyrido[1,2-a]pyrazin-2-ylmethyl]-N-methylbenzamide], the negative logarithm of the IC50 (pIC50) is 6.00 to 7.00.

Take `O=C(NCc1ccccc1)c1cn2c(c(O)c1=O)C(=O)N(Cc1ccc(F)cc1)CC2` [Example 380, N-benzyl-2-(4-fluorobenzyl)-9-hydroxy-1,8-dioxo-1,3,4,8-tetrahydro-2H-pyrido[1,2-a]pyrazine-7-carboxamide]: the pIC50 is 7.00 to 8.00.

As for `Cn1ncnc1-c1cn2c(c(O)c1=O)C(=O)N(Cc1ccc(F)c(Cl)c1)CC2` [Example 343, 2-(3-chloro-4-fluorobenzyl)-9-hydroxy-7-(2-methyl-2H-1,2,4-triazol-3-yl)-3,4-dihydro-2H-pyrido[1,2-a]pyrazine-1,8-dione], the negative logarithm of the IC50 (pIC50) was > 8.00.

With `COc1cc(Cl)cc(Cn2ccn3ccc(=O)c(O)c3c2=O)c1` [Example 212, 2-(3-chloro-5-methoxybenzyl)-9-hydroxy-2H-pyrido[1,2-a]pyrazine-1,8-dione hydrochloride], the pIC50 is 7.00 to 8.00.

Turning to `CCc1cn(Cc2ccc(Cl)c(Cl)c2)c(=O)c2c(O)c(=O)ccn12` [Example 85, 2-(3,4-dichlorobenzyl)-4-ethyl-9-hydroxy-2H-pyrido[1,2-a]pyrazine-1,8-dione], the negative-log IC50 (pIC50) is 7.00 to 8.00.

Consider `COc1cc(Cl)ccc1CN1CCn2cc(-c3nccs3)c(=O)c(O)c2C1=O` [Example 295, 2-(4-chloro-2-methoxybenzyl)-9-hydroxy-7-(thiazol-2-yl)-3,4-dihydro-2H-pyrido[1,2-a]pyrazine-1,8-dione], for which the negative logarithm of the IC50 (pIC50) was 7.00 to 8.00.

For `O=c1ccn2ccn(CCCc3cccc(Cl)c3Cl)c(=O)c2c1O` [Example 91, 2-[3-(2,3-dichlorophenyl)propyl]-9-hydroxy-2H-pyrido[1,2-a]pyrazine-1,8-dione hydrochloride], the pIC50 is 7.00 to 8.00.

On to `CN(Cc1ccccc1)C(=O)c1cn2ccn(Cc3cccc(Cl)c3)c(=O)c2c(O)c1=O` [Example 234, N-benzyl-N-methyl-2-(3-chlorobenzyl)-9-hydroxy-1,8-dioxo-1,8-dihydro-2H-pyrido[1,2-a]pyrazine-7-carboxamide], for which the pIC50 was > 8.00.

For the molecule `O=c1c(-c2ccncc2)cn2ccn(Cc3cccc(F)c3)c(=O)c2c1O` [Example 375, 2-(3-fluorobenzyl)-9-hydroxy-7-(pyridin-4-yl)-2H-pyrido[1,2-a]pyrazine-1,8-dione hydrochloride], the pIC50 is 7.00 to 8.00.

Consider `O=c1c(-c2ccncc2)cn2ccn(Cc3cccc(Cl)c3)c(=O)c2c1O` [Example 116, 2-(3-chlorobenzyl)-9-hydroxy-7-(pyridin-4-yl)-2H-pyrido[1,2-a]pyrazine-1,8-dione hydrochloride], for which the pIC50 was > 8.00.

For `CC(C)(C)C(=O)c1cn2c(c(O)c1=O)C(=O)N(CCCc1c(F)cccc1Cl)CC2` [Example 336, 2-[3-(2-chloro-6-fluorophenyl)propyl]-7-(2,2-dimethylpropionyl)-9-hydroxy-3,4-dihydro-2H-pyrido[1,2-a]pyrazine-1,8-dione], the pIC50 is > 8.00.

As for `COCc1c(-c2ccccn2)c(=O)c(O)c2n1CCN(Cc1ccc(F)cc1)C2=O` [Example 424, 2-(4-fluorobenzyl)-9-hydroxy-6-methoxymethyl-7-(pyridin-2-yl)-3,4-dihydro-2H-pyrido[1,2-a]pyrazine-1,8-dione hydrochloride], the negative-log IC50 (pIC50) was 7.00 to 8.00.

Turning to `O=c1c(-c2ccccc2F)cn2ccn(Cc3cccc(Cl)c3)c(=O)c2c1O` [Example 130, 2-(3-chlorobenzyl)-7-(2-fluorophenyl)-9-hydroxy-2H-pyrido[1,2-a]pyrazine-1,8-dione hydrochloride], the pIC50 was > 8.00.

Take `O=C(NC(c1ccccc1)c1ccccc1)c1cn2c(c(O)c1=O)C(=O)N(Cc1cccc(Cl)c1)CC2` [Example 270, N-benzhydryl-2-(3-chlorobenzyl)-9-hydroxy-1,8-dioxo-1,3,4,8-tetrahydro-2H-pyrido[1,2-a]pyrazine-7-carboxamide]: the pIC50 is 7.00 to 8.00.

Regarding `O=C(Nc1cn2ccn(Cc3cccc(Cl)c3)c(=O)c2c(O)c1=O)c1ccccc1` [Example 257, N-[2-(3-chlorobenzyl)-9-hydroxy-1,8-dioxo-1,8-dihydro-2H-pyrido[1,2-a]pyrazin-7-yl]benzamide], the pIC50 is > 8.00.

As to `O=c1c(Br)cn2ccn(Cc3cccc(Cl)c3)c(=O)c2c1O` [Example 94, 7-bromo-2-(3-chlorobenzyl)-9-hydroxy-2H-pyrido[1,2-a]pyrazine-1,8-dione hydrochloride], the pIC50 is 7.00 to 8.00.

With `O=C(CCc1ccccc1)Nc1cn2ccn(Cc3cccc(Cl)c3)c(=O)c2c(O)c1=O` [Example 258, N-[2-(3-chlorobenzyl)-9-hydroxy-1,8-dioxo-1,8-dihydro-2H-pyrido[1,2-a]pyrazin-7-yl]-3-phenylpropionamide], the pIC50 is > 8.00.

As to `O=c1ccn2ccn(Cc3cccc(Br)c3)c(=O)c2c1O` [Example 158, 2-(3-bromobenzyl)-9-hydroxy-2H-pyrido[1,2-a]pyrazine-1,8-dione hydrochloride], the pIC50 is 7.00 to 8.00.

Turning to `O=c1c(-c2ccco2)cn2ccn(Cc3cccc(Cl)c3)c(=O)c2c1O` [Example 120, 2-(3-chlorobenzyl)-7-(furan-2-yl)-9-hydroxy-2H-pyrido[1,2-a]pyrazine-1,8-dione hydrochloride], the pIC50 was > 8.00.

Consider `CSc1cn2ccn(Cc3cccc(Cl)c3)c(=O)c2c(O)c1=O` [Example 245, 2-(3-chlorobenzyl)-9-hydroxy-7-methylsulfanyl-2H-pyrido[1,2-a]pyrazine-1,8-dione], for which the pIC50 is 7.00 to 8.00.

As to `O=C1c2c(O)c(=O)c(-c3nccs3)cn2CCN1CCCc1ccccc1F` [Example 333, 2-[3-(2-fluorophenyl)propyl)-9-hydroxy-7-(thiazol-2-yl)-3,4-dihydro-2H-pyrido[1,2-a]pyrazine-1,8-dione], the negative-log IC50 (pIC50) is 7.00 to 8.00.

With `CN(C)C(=O)Nc1cn2ccn(Cc3cccc(Cl)c3)c(=O)c2c(O)c1=O` [Example 262, 3-[2-(3-chlorobenzyl)-9-hydroxy-1,8-dioxo-1,8-dihydro-2H-pyrido[1,2-a]pyrazin-7-yl]-1,1-dimethylurea], the pIC50 is > 8.00.

With `CN(C)C(=O)CNC(=O)c1cn2ccn(Cc3cccc(Cl)c3)c(=O)c2c(O)c1=O` [Example 194, N-dimethylcarbamoylmethyl-2-(3-chlorobenzyl)-9-hydroxy-1,8-dioxo-1,8-dihydro-2H-pyrido[1,2-a]pyrazine-7-carboxamide], the pIC50 was 7.00 to 8.00.

On to `COCCN(C)C(=O)c1cn2ccn(Cc3cccc(Cl)c3)c(=O)c2c(O)c1=O` [Example 183, N-(2-methoxyethyl)-N-methyl-2-(3-chlorobenzyl)-9-hydroxy-1,8-dioxo-1,8-dihydro-2H-pyrido[1,2-a]pyrazine-7-carboxamide], for which the pIC50 was 7.00 to 8.00.

`O=C1c2c(O)c(=O)ccn2CCN1Cc1ccc(F)cc1` [Example 42, 2-(4-fluorobenzyl)-9-hydroxy-3,4-dihydro-2H-pyrido[1,2-a]pyrazine-1,8-dione]: the pIC50 was 7.00 to 8.00.

With `CN(Cc1ccccc1)C(=O)c1cn2c(c(O)c1=O)C(=O)N(Cc1cccc(Cl)c1)CC2` [Example 370, N-benzyl-N-methyl-2-(3-chlorobenzyl)-9-hydroxy-1,8-dioxo-1,3,4,8-tetrahydro-2H-pyrido[1,2-a]pyrazine-7-carboxamide hydrochloride], the pIC50 is > 8.00.

As to `O=C1c2c(O)c(=O)ccn2C(Cc2ccccc2)CN1Cc1ccc(Cl)c(Cl)c1` (centres unmarked) [Example 14, 4-benzyl-2-(3,4-dichlorobenzyl)-9-hydroxy-3,4-dihydro-2H-pyrido[1,2-a]pyrazine-1,8-dione], the negative logarithm of the IC50 (pIC50) was 7.00 to 8.00.

On to `Cn1nc2ccn(Cc3cccc(Cl)c3)c(=O)c2c(O)c1=O` [Example 145, 6-(3-chlorobenzyl)-4-hydroxy-2-methyl-2,6-dihydropyrido[4,3-c]pyridazine-3,5-dione], for which the pIC50 is 6.00 to 7.00.

As for `CC(C)(C(=O)c1cn2c(c(O)c1=O)C(=O)N(Cc1cccc(Cl)c1)CC2)c1ccccc1` [Example 272, 2-(3-chlorobenzyl)-9-hydroxy-7-(2-methyl-2-phenylpropionyl)-3,4-dihydro-2H-pyrido[1,2-a]pyrazine-1,8-dione], the negative-log IC50 (pIC50) is 7.00 to 8.00.
